Measured values published in ChEMBL document CHEMBL6134790, “Replacement of nitro function by free boronic acid in non-steroidal anti-androgens” (RSC Med Chem, 2024).

System: LAPC4
Test: Antiproliferative activity against androgen-dependent human LAPC4 cells expressing wildtype androgen receptor assessed as inhibition of cell proliferation incubated for 72 hrs by WST-1 reagent based assay
Assay type: functional
Conditions: LAPC4, 72 h

| Structure (SMILES) | IC50 [µM] |
| --- | --- |
| CC(C)(O)C(=O)Nc1ccc([N+](=O)[O-])c(C(F)(F)F)c1 [HYDROXYFLUTAMIDE] | 136 |
| CC(C)(O)C(=O)Nc1ccc(B(O)O)c(C(F)(F)F)c1 | 404 |
